From patent US8729098B2, “Tertiary 8-hydroxyquinoline-7-carboxamide derivatives and uses thereof” (Polichem SA, priority 2009, dated 2014)
Values after ≈ are worked out from the molar mass of the structure shown. Each block holds one compound with its values, some of them ahead of it.

Tests used:
[1] = system: Aspergillus Niger (ATCC 16404); assay: Broth micro-dilution antifungal susceptibility test (MIC); assay type: cell-based; conditions: ATCC16404, 120 h, RPMI 1640 pH 7, five days at 35° C., geometric mean of two experiments
Method: (§1) Trichophyton Rubrum (ATCC 28188, PBI International), Trichophyton Mentagrophytes (ATCC 9533, PBI International), Aspergillus Niger (ATCC 16404, PBI International), Scopulariopsis Brevicaulis (ATCC 36840, DSMZ), Candida Albicans (ATCC 90028, PBI International), Candida Glabrata (ATCC 90030, DSMZ).
(§2) Strains were prepared from freeze-dried ampoules or freeze-dried pellets. An isolation of the suspensions was made on Potato Dextrose Agar (PDA) to test the strains purity. A strains' massive growth was then made streaking microbial suspensions on PDA plates.
(§3) Incubation was at 30° C. for 48-72 hours (Candida yeasts) and for 7-10 days (filamentous fungi).
(§4) The yeasts' colonies and the filamentous fungi's conidia were harvested with 3-5 mL of RPMI 1640+50% glycerol and the aliquots frozen at −80° C.
(§5) Compounds' minimal inhibition concentration (MIC) was determined through broth micro-dilution susceptibility test using a method developed in agreement with the National Committee for Clinical Laboratory Standards (NCCLS) (National Committee for Clinical Laboratory Standards. Reference Method for Broth Dilution Antifungal Susceptibility Testing of Yeasts; Approved standard-Second Edition M27-A2. 2002; Vol. 22, No. 15) (National Committee for Clinical Laboratory Standards. Reference Method for Broth Dilution Antifungal Susceptibility Testing of Filamentous Fungi; Approved standard M38-A. 2002; Vol. 22, No. 16).
(§6) Assays were carried out in RPMI 1640 with L-glutamine medium buffered to pH 7 with 0.165M 3-(N-morpholino)propanesulfonic acid (MOPS) and 10M NaOH and supplemented with 18 g glucose/litre. The tests were performed using 96 well sterile plates (inoculum size of 1×10^5 CFU/mL). Compounds stock solutions were prepared at 12.8 mg/mL in 100% DMSO. A series of twofold dilutions were prepared in plate using RPMI 1640. Final concentrations ranged from 0.125 to 128 μg/mL at 1% DMSO.
(§7) MIC is defined as the lowest concentration of antifungal agent which prevents any visible growth and was determined after 48 h of incubation for yeasts (35° C.) and after five days of incubation for filamentous fungi (35° C.).

[2] = system: Candida Albicans (ATCC 90028); assay: as above; assay type: cell-based; conditions: ATCC90028, RPMI 1640 pH 7, 48 h at 35° C., geometric mean of two experiments
Method: as §1, §2, §3, §4, §5, §6, §7

[3] = system: Candida Glabrata (ATCC 90030); assay: as above; assay type: cell-based; conditions: Nakaseomyces glabratus, ATCC90030; RPMI 1640 pH 7, 48 h at 35° C.; geometric mean of two experiments
Method: as §1, §2, §3, §4, §5, §6, §7

[4] = system: Scopulariopsis Brevicaulis (ATCC 36840); assay: as above; assay type: cell-based; conditions: ATCC36840, 120 h, RPMI 1640 pH 7, five days at 35° C., geometric mean of two experiments
Method: as §1, §2, §3, §4, §5, §6, §7

[5] = system: Trichophyton Mentagrophytes (ATCC 9533); assay: as above; assay type: cell-based; conditions: ATCC9533, 120 h, RPMI 1640 pH 7, five days at 35° C., geometric mean of two experiments, read-out: MIC Tricophyton Mentagrophytes ATCC 9533
Method: as §1, §2, §3, §4, §5, §6, §7

[6] = system: Trichophyton Rubrum (ATCC 28188); assay: as above; assay type: cell-based; conditions: ATCC28188, 120 h, RPMI 1640 pH 7, five days at 35° C., geometric mean of two experiments, read-out: MIC Trycophyton Rubrum ATCC 28188
Method: as §1, §2, §3, §4, §5, §6, §7

invasive aspergillosis = conditions: daily administered at 10 mg/kg; cited from earlier work

Structure (SMILES): O=C(c1ccc2cccnc2c1O)N1C2CCCCC2C2CCCCC21 (stereo not shown) [Example 49, (Decahydro-1H-carbazol-9(9aH)-yl)(8-hydroxyquinolin-7-yl)methanone]
MIC [1]: 0.25 µg/mL (≈ 0.713 µM)
MIC [2]: 2 µg/mL (≈ 5.71 µM)
MIC [3]: 2.83 µg/mL (≈ 8.08 µM)
MIC [4]: 1 µg/mL (≈ 2.85 µM)
MIC [5]: 1.41 µg/mL (≈ 4.02 µM)
MIC [6]: 0.71 µg/mL (≈ 2.03 µM)

Structure (SMILES): O=C(c1ccc2cccnc2c1O)N1CCC2CCCCC2C1 (stereo not shown) [Example 6, (8-Hydroxyquinolin-7-yl)(octahydroisoquinolin-2(1H)-yl)methanone]
MIC [1]: 0.5 µg/mL (≈ 1.61 µM)
MIC [2]: 1.41 µg/mL (≈ 4.54 µM)
MIC [3]: 2 µg/mL (≈ 6.44 µM)
MIC [4]: 1.41 µg/mL (≈ 4.54 µM)
MIC [5]: 1.41 µg/mL (≈ 4.54 µM)
MIC [6]: 1.41 µg/mL (≈ 4.54 µM)

Structure (SMILES): C[C@@H]1[C@H](O)[C@@H](C)/C=C/C=C/C=C/C=C/C=C/C=C/C=C/[C@H](O[C@@H]2O[C@H](C)[C@@H](O)[C@H](N)[C@@H]2O)C[C@@H]2O[C@](O)(C[C@@H](O)C[C@@H](O)[C@H](O)CC[C@@H](O)C[C@@H](O)CC(=O)O[C@H]1C)C[C@H](O)[C@H]2C(=O)O [Amphotericin B]
rate of nephrotoxicity (invasive aspergillosis): 31%

Structure (SMILES): CN(C(=O)c1ccc2cccnc2c1O)c1ccc(Br)cc1 [Example 29, N-(4-Bromophenyl)-8-hydroxy-N-methylquinoline-7-carboxamide]
MIC [1]: 0.13 µg/mL (≈ 0.364 µM)
MIC [2]: 4 µg/mL (≈ 11.2 µM)
MIC [3]: 4 µg/mL (≈ 11.2 µM)
MIC [4]: 2 µg/mL (≈ 5.6 µM)
MIC [5]: 1 µg/mL (≈ 2.8 µM)
MIC [6]: 2 µg/mL (≈ 5.6 µM)

Structure (SMILES): O=C(c1ccc2cccnc2c1O)N1CCCc2cc(F)ccc21 [Example 72, (6-Fluoro-3,4-dihydroquinolin-1(2H)-yl)(8-hydroxyquinolin-7-yl)methanone]
MIC [1]: 0.25 µg/mL (≈ 0.776 µM)
MIC [2]: 2 µg/mL (≈ 6.2 µM)
MIC [3]: 2 µg/mL (≈ 6.2 µM)
MIC [4]: 0.5 µg/mL (≈ 1.55 µM)
MIC [5]: 2 µg/mL (≈ 6.2 µM)
MIC [6]: 1 µg/mL (≈ 3.1 µM)

Structure (SMILES): CN(Cc1ccc(Cl)cc1)C(=O)c1ccc2cccnc2c1O [Example 56, N-(4-Chlorobenzyl)-8-hydroxy-N-methylquinoline-7-carboxamide]
MIC [1]: 0.71 µg/mL (≈ 2.17 µM)
MIC [2]: 1.41 µg/mL (≈ 4.31 µM)
MIC [3]: 2 µg/mL (≈ 6.12 µM)
MIC [4]: 2 µg/mL (≈ 6.12 µM)
MIC [5]: 1 µg/mL (≈ 3.06 µM)
MIC [6]: 2 µg/mL (≈ 6.12 µM)

Further compounds by falling MIC [1], results first:

MIC [1]: 0.25 µg/mL (≈ 0.735 µM)
MIC [2]: 2 µg/mL (≈ 5.88 µM)
MIC [3]: 1 µg/mL (≈ 2.94 µM)
MIC [4]: 1 µg/mL (≈ 2.94 µM)
MIC [5]: 2 µg/mL (≈ 5.88 µM)
MIC [6]: 1 µg/mL (≈ 2.94 µM)
Structure (SMILES): O=C(c1ccc2cccnc2c1O)N1CCCc2c(F)cc(F)cc21 [Example 70, (5,7-Difluoro-3,4-dihydroquinolin-1(2H)-yl)(8-hydroxyquinolin-7-yl)methanone]

MIC [1]: 0.25 µg/mL (≈ 0.776 µM)
MIC [2]: 2 µg/mL (≈ 6.2 µM)
MIC [3]: 2 µg/mL (≈ 6.2 µM)
MIC [4]: 0.71 µg/mL (≈ 2.2 µM)
MIC [5]: 2 µg/mL (≈ 6.2 µM)
MIC [6]: 1 µg/mL (≈ 3.1 µM)
Structure (SMILES): O=C(c1ccc2cccnc2c1O)N1CCCc2ccc(F)cc21 [Example 61, (7-Fluoro-3,4-dihydroquinolin-1(2H)-yl)(8-hydroxyquinolin-7-yl)methanone]

MIC [1]: 0.25 µg/mL (≈ 0.861 µM)
MIC [2]: 2 µg/mL (≈ 6.89 µM)
MIC [3]: 2 µg/mL (≈ 6.89 µM)
MIC [4]: 2 µg/mL (≈ 6.89 µM)
MIC [5]: 2 µg/mL (≈ 6.89 µM)
MIC [6]: 1 µg/mL (≈ 3.44 µM)
Structure (SMILES): O=C(c1ccc2cccnc2c1O)N1Cc2ccccc2C1 [Example 10, (8-Hydroxyquinolin-7-yl)(isoindolin-2-yl)methanone]

MIC [1]: 0.25 µg/mL (≈ 0.776 µM)
MIC [2]: 2 µg/mL (≈ 6.2 µM)
MIC [3]: 2.83 µg/mL (≈ 8.78 µM)
MIC [4]: 0.71 µg/mL (≈ 2.2 µM)
MIC [5]: 2 µg/mL (≈ 6.2 µM)
MIC [6]: 1 µg/mL (≈ 3.1 µM)
Structure (SMILES): O=C(c1ccc2cccnc2c1O)N1CCCc2c(F)cccc21 [Example 71, (5-Fluoro-3,4-dihydroquinolin-1(2H)-yl)(8-hydroxyquinolin-7-yl)methanone]

MIC [1]: 0.18 µg/mL (≈ 0.588 µM)
MIC [2]: 2 µg/mL (≈ 6.53 µM)
MIC [3]: 2 µg/mL (≈ 6.53 µM)
MIC [4]: 0.71 µg/mL (≈ 2.32 µM)
MIC [5]: 1.41 µg/mL (≈ 4.6 µM)
MIC [6]: 1 µg/mL (≈ 3.26 µM)
Structure (SMILES): O=C(c1ccc2cccnc2c1O)N1CCOc2ccccc21 [Example 74, (2H-Benzo[b][1,4]oxazin-4(3H)-yl)(8-hydroxyquinolin-7-yl)methanone]

MIC [1]: 0.125 µg/mL (≈ 0.352 µM)
MIC [2]: 2 µg/mL (≈ 5.64 µM)
MIC [3]: 1 µg/mL (≈ 2.82 µM)
MIC [4]: 4 µg/mL (≈ 11.3 µM)
MIC [5]: 2 µg/mL (≈ 5.64 µM)
MIC [6]: 2 µg/mL (≈ 5.64 µM)
Structure (SMILES): O=C(c1ccc2cccnc2c1O)N1CCCc2c(Cl)ccc(O)c21 [Example 73, (5-Chloro-8-hydroxy-3,4-dihydroquinolin-1(2H)-yl)(8-hydroxyquinolin-7-yl)methanone]
